Columns and labels:
TNF-alpha = assay: Anti-inflammatory in vitro study: TNF-alpha in reconstructed epidermis treated with SDS; format: cell-based; details: human reconstructed epidermis, 0.1% SDS, 24 hours incubation
Procedure: A human reconstructed epidermis is put in contact with the vegan nanofibres (topical application to mimic the real condition of use) and treated with an irritant inflammatory agent such as sodium dodecyl sulfate (SDS) to assess the capability of vegan nanofibers to counteract the inflammatory event. The evaluation is performed by using a non-treated epidermis as negative control and the epidermis treated only with the inflammatory agent (SDS) as a positive control. TNF-alpha is often associated with the inflammatory process and oxidative stress as an acute pro-inflammatory marker.

[1] = system: human epidermal melanocytes; assay: Brightening in vitro study: melanin production of melanocytes; format: cell-based; details: kojic acid 42 μg/ml in cell culture, 96 hours incubation
Procedure: In vitro study is used to evaluate the brightening effect and is determined by analysing the melanin production of melanocytes. The level of melanin produced by melanocytes determines the colour of skin, therefore, the brightening effect can be evaluated by the impact of formulation on the melanin production of melanocytes. In this study, human epidermal melanocytes are utilised. Kojic acid, traditionally used as a brightening ingredient, is used as the positive control. Kojic add is prepared in 15% ethanol/Hanks balanced salt solution and added into cell culture to give final concentration of 42 μg/ml in cell culture. 0.8 cm circles of nanofibre is directly applied into the cell culture to give a final concentration of ethyl ascorbic add of 3 μg/ml in cell culture. FIG. 5 presents the result of melanin concentration in cells only, cells treated with kojic acid and cells treated with nanofibres after 96 hours incubation time.
The absorbance of each sample is read at 405 nm and then compared with a standard curve of synthetic melanin to estimate the concentration of melanin in the cell culture. […] The melanin concentration is 101.5 μg/ml in cells only, 101.1 μg/ml in cells with kojic add and 97.48 μg/ml in cells with nanofibres. […] This is probably due to the added kojic add concentration being very low. […]

## CCCCCCCCCCCCOS(=O)(=O)[O-].[Na+] [SDS, sodium dodecyl sulfate]
TNF-alpha
  concentration of TNF-alpha: 47.92 µg/mL

## O=c1cc(CO)occ1O [kojic acid]
[1]
  inhibition to melanin production: slight inhibition to melanin production, but is not statistically significant
  melanin concentration: 101.1 µg/mL

— patent publication US20220354752A1, “NANOFIBRE MATRIX MADE OF NATURAL POLYMERS WITH NATURAL FUNCTIONAL INGREDIENTS FOR COSMETIC PRODUCTS” (NANOLAYR LIMITED, priority 2019, published 2022)
